Read-outs that look alike come from different tables or passages of the source.
How the values were obtained:
[1] = biological target: T1, recombinant human CDK1/cyclin B complex (Homo sapiens, UniProt P06493); set-up: method as in PMID 16204078; settings: relative potency from IC50 values of a previous study; cited from earlier work
T1 construct: purchased Reaction Biology

[2] = tested on: HUVECs; assay: Flow cytometry analysis of cell cycle progression, endothelial cells; settings: 48 h
Method: (§3) Cells were pelleted at 140 g at 4°C for 5 min and supernatant discarded. Cells were fixed in ice-cold 70% (v/v) ethanol added dropwise and stored at −20°C prior to analysis. Immediately before flow cytometry, cells were pelleted (140 g at 4°C for 5 min), supernatant removed and cells washed twice in 500 µl PBS. 100 µg/ml ribonuclease and 50 µg/ml propidium iodide (Sigma-Aldrich) was added to each sample and incubated for 2–3 h at 37°C. Cells were pelleted (140 g at 4°C for 5 min), supernatant removed and cells washed in 500 µl PBS before being resuspended in 500 µl PBS buffer containing 2.5 mM EDTA. Samples were gated and run at a low flow rate (<1000 events s^−1) on a Fortessa flow cytometer (Becton Dickinson, Oxford, UK) with multi-laser and detection capabilities. The information from 10000 events was collect and data was analyzed using ModFit software (Becton Dickinson).
(H) Quantification of cell cycle ratios after inhibitor treatment. Error bars represent ±SEM (n = 3). ***p<0.001; ****p<0.0001.

[3] = tested on: HUVECs; assay: Organotypic tubulogenesis assay (HUVEC-fibroblast co-culture); assay type: cell-based, human; settings: for inhibition at 10 µM / inhibition at 50 µM: Homo sapiens, HUVEC
Method: This assay was performed as previously described, [27]. Primary human foreskin fibroblasts (pHFF) were a gift from Gareth Howell (University of Leeds, UK) and were cultured routinely in DMEM containing 10% (v/v) FBS up to passage 10. In co-culture with HUVECs, the medium was replaced for endothelial cell growth medium (Promocell, Heidelberg, Germany).
Figure 3 JK-31 inhibits angiogenesis in an ex vivo murine model and in vitro. (A) Effects of JK-31 on ex vivo angiogenic sprouting from wild-type mouse aortic ring explants. Aortic rings were seeded onto Matrigel and treated with JK-31 (0, 1, 10 or 50 µM) for six days and imaged by phase-contrast microscopy. Freehand black lines delineate the outermost extent of sprouting. (B) Absolute quantification of angiogenic sprout length. For each aortic ring, the mean of three longest sprouts was calculated. Error bars represent ±SEM (n = 18; ***p<0.001). (C) JK-31 inhibits endothelial tube formation in vitro in response to exogenous VEGF-A. HUVECs were seeded onto a confluent layer of primary fibroblasts and treated with VEGF-A (10 ng/ml) for seven days in the presence of DMSO or JK-31 (1, 10 or 50 µM). Co-cultures were stained with CD31 antibody followed by HRP-conjugated secondary antibody and visualized by light microscopy using […] (DAB)-staining (see Materials and Methods). (D) Fluorescence microscopy analysis of endothelial cell phenotypes and filopodia formation during tubulogenesis in the presence of VEGF-A and JK-31. White arrowheads indicate vestigial lamellipodia-like structures. (E) JK-31 inhibits endothelial tube formation in vitro in response to exogenous bFGF (20 ng/ml). Treatment and processing was carried out as described above. Quantification of (F) mean tubule branch length and (G) mean number of tubule branch points in response to JK-31 and exogenous growth factors. Light micrograph fields were chosen at random and quantification performed using Image J software. Error bars represent ± SEM (n = 10; *p<0.05; **p<0.01; ***p<0.001) for each respective growth factor.

[4] = biological target: T1, recombinant human CDK1/cyclin B complex; assay: 33P in vitro kinase HotSpot profiling assay, CDK1/cyclin B; assay type: biochemical; settings: [γ-33P]-ATP 10 µM; substrate histone H1; ten-point curves
[5] = tested on: HUVECs; assay: MTS cell viability assay; assay type: cell-based, human; settings: two days (48 h), concentrations of up to 50 µM
Method: 2000 endothelial cells were seeded per well of a 96-well plate and cultured in ECGM overnight. ECGM was then aspirated and cells starved in MCDB131 +0.2% (w/v) BSA for 2 h. After 2 h, media was changed for ECGM with or without DMSO, plus or minus 100 nM, 1 µM, 10 µM or 50 µM JK-31 and cells incubated for 48 h. Then, 10 µl of MTS reagent (CellTiter 96 AQueous Non-Radioactive Cell Proliferation Assay, Promega, Madison, Wisconsin, USA) was added to each well after 44 h. After further incubation for 4-6 h, we monitored the color change caused by reduction of the yellow tetrazolium compound (MTS) by metabolically active cells to brown formazan. Change in color was monitored at 490 nm using a Tecan Sunrise multiwavelength 96-well plate reader (Tecan, Mannedorf, Switzerland).
(A) Relevant protein expression in HUVECs and MCF-7 cells. Total cell lysates were processed for immunoblotting. Membranes were probed with antibodies raised against VEGFR2, CDK1 and β-actin. Representative immunoblot was shown. (B) HUVECs were treated with DMSO or JK-31 (0.1, 1, 10, 50 µM) in full growth medium for 48 h followed by MTS assay and subsequent measurement of absorbance at OD490. Error bars represent ±SEM (n = 5). (TIF) Click here for additional data file.

[6] = biological target: T2, recombinant human VEGFR2 (Homo sapiens, UniProt P35968); assay: 33P in vitro kinase HotSpot profiling assay, VEGFR2; assay type: biochemical
T2 construct: purchased Reaction Biology
T2 sequence (P35968 20-1356): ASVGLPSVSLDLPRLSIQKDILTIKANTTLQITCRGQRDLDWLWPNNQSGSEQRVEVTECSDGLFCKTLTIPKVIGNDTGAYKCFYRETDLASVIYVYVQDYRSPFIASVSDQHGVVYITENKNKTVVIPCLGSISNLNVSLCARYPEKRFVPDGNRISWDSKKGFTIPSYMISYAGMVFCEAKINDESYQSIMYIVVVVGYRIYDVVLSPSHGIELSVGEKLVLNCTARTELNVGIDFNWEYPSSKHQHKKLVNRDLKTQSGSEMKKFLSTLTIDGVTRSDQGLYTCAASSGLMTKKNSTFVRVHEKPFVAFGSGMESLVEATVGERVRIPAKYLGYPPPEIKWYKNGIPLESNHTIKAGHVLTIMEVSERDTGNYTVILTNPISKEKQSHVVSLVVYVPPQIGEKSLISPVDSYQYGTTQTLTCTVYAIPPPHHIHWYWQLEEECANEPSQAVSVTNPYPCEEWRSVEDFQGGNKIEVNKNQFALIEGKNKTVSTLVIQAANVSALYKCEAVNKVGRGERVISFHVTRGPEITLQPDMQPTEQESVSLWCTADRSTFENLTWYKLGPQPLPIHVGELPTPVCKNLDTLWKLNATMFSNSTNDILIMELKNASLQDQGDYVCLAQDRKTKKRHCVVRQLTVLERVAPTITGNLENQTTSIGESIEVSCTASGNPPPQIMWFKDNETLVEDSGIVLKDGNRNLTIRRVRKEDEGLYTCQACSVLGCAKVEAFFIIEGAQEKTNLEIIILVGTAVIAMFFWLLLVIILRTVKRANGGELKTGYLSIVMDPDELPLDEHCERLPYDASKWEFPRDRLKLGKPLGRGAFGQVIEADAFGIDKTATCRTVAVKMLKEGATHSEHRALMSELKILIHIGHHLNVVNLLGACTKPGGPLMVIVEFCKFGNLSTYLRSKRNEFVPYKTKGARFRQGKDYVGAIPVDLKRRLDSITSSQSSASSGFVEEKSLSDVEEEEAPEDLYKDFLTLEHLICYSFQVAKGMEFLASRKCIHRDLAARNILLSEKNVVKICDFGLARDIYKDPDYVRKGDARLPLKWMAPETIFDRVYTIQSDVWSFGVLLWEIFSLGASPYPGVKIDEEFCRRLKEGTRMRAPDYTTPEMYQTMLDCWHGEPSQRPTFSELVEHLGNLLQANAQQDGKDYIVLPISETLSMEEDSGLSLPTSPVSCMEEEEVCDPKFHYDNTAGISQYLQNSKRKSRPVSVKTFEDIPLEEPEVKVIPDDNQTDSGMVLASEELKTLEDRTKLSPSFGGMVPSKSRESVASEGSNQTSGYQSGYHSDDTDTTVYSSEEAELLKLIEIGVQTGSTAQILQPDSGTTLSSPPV

[7] = tested on: mouse aortic ring explants; assay: Ex vivo murine aortic ring angiogenesis assay; assay type: cell-based; settings: 10 µM and above, six days, Matrigel
Method: Three male five-month old wild type C57Bl/6 mice were humanely sacrificed followed by cervical dislocation. A thoraco-abdominal incision was made and the heart and aorta excised and stored in Hank's balanced buffer. The aortas were cleaned by removing connective tissue and adventitia from the exterior and each aorta was cut into 18–24 rings. Ring explants were embedded into growth-factor reduced Matrigel basement membrane matrix (Beckton Dickinson) in a 24-well plate and incubated for 45 min at 37°C to allow the Matrigel to set and the rings to adhere. […] Rings were photographed and the degree of sprouting measured using Cell∧B imaging software (Olympus, Tokyo, Japan). The mean of the three longest angiogenic sprouts on each ring was measured.
Figure 3 JK-31 inhibits angiogenesis in an ex vivo murine model and in vitro. […] (B) Absolute quantification of angiogenic sprout length. For each aortic ring, the mean of three longest sprouts was calculated. […] (D) Fluorescence microscopy analysis of endothelial cell phenotypes and filopodia formation during tubulogenesis in the presence of VEGF-A and JK-31. […] Quantification of (F) mean tubule branch length and (G) mean number of tubule branch points in response to JK-31 and exogenous growth factors. Light micrograph fields were chosen at random and quantification performed using Image J software. […]

[8] = tested on: FGF-stimulated intracellular signaling; assay: Immunoblot of FGF (aFGF, bFGF)-stimulated ERK1/2 phosphorylation in HUVECs; assay type: cell-based, human; settings: JK-31 0.1-50 µM
Method: (§1) All experiments were conducted at <6 cell passages.
(§2) Figure 2 JK-31 inhibits growth factor-stimulated receptor activation and downstream signal transduction. (A) HUVECs were pre-treated with JK-31 (0, 0.1, 1, 10 or 50 µM) for 30 min followed by 7.5 min stimulation with VEGF-A (25 ng/ml) in the presence of JK-31. Total cell lysates were prepared and processed for immunoblotting. Levels of phosphorylated VEGFR2, PLCγ1, Akt and ERK were analysed using phospho-specific antibodies. Membranes were stripped and re-probed for total protein levels and a loading control (α-tubulin). (B) Densitometric quantification of phosphorylated VEGFR2-pY1175 levels in response to VEGF-A and JK-31 treatment. Error bars represent ± SEM (n = 4; ***p<0.001). (C-D) JK-31 inhibits FGF-stimulated intracellular signaling in endothelial cells. HUVECs were pre-treated with JK-31 (0, 0.1, 1, 10 or 50 µM) for 30 min followed by 10 min stimulation with either (C) bFGF (50 ng/ml) or (D) aFGF (50 ng/ml) in the presence of JK-31. Cells were lysed and processed for immunoblotting. Representative immunoblots of three independent experiments are shown.

[9] = tested on: VEGFR2; assay: Immunoblot of VEGF-A-stimulated VEGFR2 activation and downstream signaling in HUVECs; assay type: cell-based, human
Method: as §1, §2

[10] = tested on: HUVECs; assay: Scratch wound healing assay; assay type: cell-based, human; settings: 10 µM and above, 16 h
Method: Figure 4 JK-31 inhibits endothelial wound closure in vitro. (A) Scratch-wounded endothelial cell monolayers were incubated in either full growth medium (grey bars) or stimulated with 25 ng/ml VEGF-A (black bars) for 16 h in the presence of DMSO or JK-31 (1, 10 or 50 µM). Wounded cell monolayers were photographed before and after treatment and wound widths at each time point were measured using Image J software. Percentage wound closure was calculated by [(width before – width after)/width before] ×100. […] (B) Representative phase-contrast micrographs depicting wound closure over 16 h in the presence VEGF-A and either DMSO or JK-31 (10 µM).

[11] = tested on: IGF-1-mediated signaling; assay: Immunoblot of IGF-1-mediated signaling in HUVECs; assay type: cell-based, human; settings: JK-31 0.1-50 µM, IGF-1 100 ng/ml 10 min
Method: as §1
Supplementary file pone.0110997.s006.tif: Figure S6 Relative specificity of JK-31 for the VEGF-A-VEGFR2 signaling pathway. […] HUVECs were pre-treated with JK-31 (0, 0.1, 1, 10 or 50 µM) for 30 min followed by a 10 min stimulation with either (A) EGF (50 ng/ml) or (B) IGF-1 (100 ng/ml) in the presence of JK-31. Total cell lysates were prepared and processed for immunoblotting. Levels of phosphorylated Akt and ERK1/2 were analysed using phospho-specific antibodies. Membranes were stripped and re-probed for total protein levels and a loading control (α-tubulin). Representative immunoblots of three independent experiments are shown. (TIF) Click here for additional data file.

[12] = tested on: MCF-7 cells; assay: Flow cytometry analysis of cell cycle progression, breast cancer cells; settings: 48 h
Method: as §3
(H) Quantification of cell cycle ratios after inhibitor treatment. Error bars represent ±SEM (n = 3).). *p<0.05; **p<0.01; ***p<0.001; ****p<0.0001.

[13] = JK-31 10 or 50 µM, vs asynchronous controls

T1 sequence (P06493 whole entry): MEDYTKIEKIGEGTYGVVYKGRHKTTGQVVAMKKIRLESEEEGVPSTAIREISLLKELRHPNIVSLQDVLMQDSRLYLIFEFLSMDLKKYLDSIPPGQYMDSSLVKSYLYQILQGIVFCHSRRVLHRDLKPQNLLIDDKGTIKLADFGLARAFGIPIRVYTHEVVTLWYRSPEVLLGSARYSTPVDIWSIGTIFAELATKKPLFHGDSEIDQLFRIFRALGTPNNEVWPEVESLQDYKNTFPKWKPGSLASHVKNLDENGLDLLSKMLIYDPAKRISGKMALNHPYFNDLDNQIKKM
T1 sequence (P14635 whole entry partner): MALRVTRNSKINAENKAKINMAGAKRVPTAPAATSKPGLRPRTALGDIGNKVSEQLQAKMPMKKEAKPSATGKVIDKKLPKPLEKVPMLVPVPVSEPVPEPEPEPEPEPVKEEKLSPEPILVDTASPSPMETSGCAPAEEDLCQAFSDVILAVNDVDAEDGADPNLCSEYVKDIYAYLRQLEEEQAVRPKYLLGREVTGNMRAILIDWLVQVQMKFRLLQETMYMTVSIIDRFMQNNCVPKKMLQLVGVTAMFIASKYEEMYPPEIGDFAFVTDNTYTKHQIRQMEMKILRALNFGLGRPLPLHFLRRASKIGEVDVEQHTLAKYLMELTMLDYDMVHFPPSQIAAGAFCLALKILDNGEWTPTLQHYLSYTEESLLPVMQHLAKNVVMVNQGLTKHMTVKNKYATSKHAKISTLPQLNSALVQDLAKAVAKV

## Nc1nc(Nc2ccc(S(N)(=O)=O)cc2)nn1C(=O)c1c(F)cccc1F [JNJ-7706621]
[1]
  More potent inhibitor of CDK1 than VEGFR2: ~17 fold

## CC(C)(C)c1ccc(C(=O)n2nc(Nc3ccccc3)nc2N)cc1 [JK-31, (5-amino-3-(phenylamino)-1H-1,2,4-triazol-1-yl)(4-(tert-butyl)phenyl)methanone]
[2]; JK-31 10 or 50 µM
  Number of cells present in G1: significant increase in the number of cells present in G1
[2]; [13]
  Proportion of cells in G2/M phase: significant decrease in the proportion of cells in the G2/M phase
[2]; JK-31 treatment
  Number of cells present in S phase: not a significant change
[3]; 10 µM, bFGF 20 ng/ml
  Reduction of bFGF-stimulated branching: more than 90%
[3]; 10 µM, in the presence of VEGF-A
  Endothelial tubule phenotype: aberrant hyper-branched endothelial tubule phenotype
[3]; 50 µM, VEGF-A 10 ng/ml, seven days
  Reduction in branching (VEGF-A): more than 80%
[3]; 50 µM, bFGF 20 ng/ml
  Reduction of bFGF-stimulated branching: more than 90%
[3]; 168 h, 10 µM, VEGF-A 10 ng/ml, seven days, read-out: Inhibition of VEGF-A-stimulated endothelial tube formation
  inhibition at 10 µM: ~35%
[3]; 168 h, 50 µM, VEGF-A 10 ng/ml, seven days, read-out: Inhibition of VEGF-A-stimulated endothelial tube formation
  inhibition at 50 µM: > 80%
[3]; 10 µM, bFGF 20 ng/ml, read-out: Inhibition of bFGF-stimulated endothelial tube formation
  inhibition at 10 µM: ~75%
[3]; 50 µM, bFGF 20 ng/ml, read-out: Inhibition of bFGF-stimulated endothelial tube formation
  inhibition at 50 µM: > 95%
[4]
  IC50: 2.54 µM
[5]
  Cytotoxic effects on endothelial cells (cell viability, MTS): no significant cytotoxic effects
[6]; [γ-33P]-ATP 10 µM, substrate poly[Glu:Tyr] (4:1), ten-point curves
  IC50: 0.627 µM
[6]; relative potency from IC50 values
  Selectivity for VEGFR2 than CDK1: ~4 fold
[7]
  Inhibition of radial angiogenic sprout formation: more than 40%
[8]; aFGF 50 ng/ml 10 min
  ERK1/2 phosphorylation in response to aFGF: dose-dependent inhibition
[8]; bFGF 50 ng/ml 10 min
  ERK1/2 phosphorylation in response to bFGF: dose-dependent inhibition
[9]; HUVECs, JK-31 10 µM and above, 30 min pre-treatment, VEGF-A 25 ng/ml 7.5 min
  Inhibition of phosphorylation of residue Y1175 within VEGFR2: > 60%
[9]; HUVECs, JK-31 0.1-50 µM, VEGF-A 25 ng/ml 7.5 min
  VEGF-A-stimulated signal transduction (PLCγ1-pY783, Akt-pS473, ERK1/2-pT202/pY204): inhibited VEGF-A-stimulated signal transduction in a dose-dependent manner
[9]; VEGF-A-stimulated VEGFR2 activation and downstream signaling in endothelial cells vs recombinant kinases
  Cellular IC50 relative to cell-free phosphorylation assay: approximately 10 fold
[10]; VEGF-A 25 ng/ml
  VEGF-A-stimulated wound closure: completely inhibited
[10]; full growth medium
  Wound closure in full growth medium: only partially inhibited
[11]
  ERK1/2 phosphorylation in response to IGF-1: not in response to either EGF or IGF-1
[12]; JK-31 10 or 50 µM
  Number of cells present in G1: significant increase in the number of cells present in G1
[12]; [13]
  Proportion of cells in G2/M phase: significant decrease in the proportion of cells in the G2/M phase
[12]; JK-31 treatment
  Number of cells present in S phase: significantly decreased

Source: PMC4230991, “In Silico Design and Biological Evaluation of a Dual Specificity Kinase Inhibitor Targeting Cell Cycle Progression and Angiogenesis” (PLoS ONE, 2014)
